We go through 19 compounds from patent US10583128B2, “Treatment of diseases related to alpha subunits of sodium channels, voltage-gated (SCNxA) with small molecules” (CuRNA, Inc., priority 2011, dated 2020).

Assay [1] deals with SCN1A mRNA. The assay is described as follows: Upregulation of SCN1A mRNA in primary human skin fibroblasts carrying a Dravet-associated mutation (real time PCR). In kind it is cell-based. The conditions noted are these: compound 1 uM, 24-48 h, 18S-normalized vs vehicle (DMSO), average upregulation; for fold induction at 1 µM: Homo sapiens, Skin fibroblast, read-out: fold increase in SCN1A mRNA levels, SCN1A fibroblasts, Avg. The procedure: (§1) Transfer of a small molecule into a host cell or organism and determination of its effect upon RNA or protein up-regulation or down regulation can be assessed by several methods well known in the art. For example, SCN1A fibroblasts and/or keratinocytes or other cell types as desired are selected and grown for the specific assays herein. One day before the experiment cells are plated at the density of approximately 4×10^4/well into 24 well plates in Growth Media and incubated at 37° C. and 5% CO2 overnight. Next day, the media in the 24 well plates is changed to fresh Growth Media (1 ml/well) and the cells are dosed with small compounds. Compound stocks are prepared in DMSO at a concentration of 1 mM. At the time of the experiment 1 mM stock solutions are diluted to the concentration of 1 uM in Growth Media. One in 1000 dilution of DMSO is used for the control wells. After 24-48 h incubation at 37° C. and 5% CO2 the media is removed and RNA is extracted from the cells using SV Total RNA Isolation System from Promega (cat # Z3105) following the manufacturers' instructions. Six hundred nanograms of purified total RNA is added to the reverse transcription reaction performed using SuperScript VILO cDNA Synthesis Kit from Invitrogen (cat #11754-250) as described in the manufacturer's protocol. The cDNA from this reverse transcription reaction is used to monitor gene expression by real time PCR using ABI Taqman Gene Expression Mix (cat #4369510) and primers/probes designed by ABI (assays Hs00374696_ml, Hs00897350_ml or Hs00897341_ml for human SCN1A). The following PCR cycle is used: 50° C. for 2 min, 95° C. for 10 min, 40 cycles of (95° C. for 15 seconds, 60° C. for 1 min) using StepOne Plus Real Time PCR system (Applied Biosystems). The assay for 18S is manufactured by ABI (cat #4319413E). Fold change in gene expression after treatment with compounds is calculated based on the difference in 18S-normalized dCt values between compound- and vehicle-treated samples.
In Example 1 primary human skin fibroblasts carrying Dravet-associated SCN1A mutation were treated with small compounds at a final concentration of 1 uM.
Primary human skin fibroblasts carrying Dravet-associated SCN1A mutation introduced into culture by Dr. N. Kenyon (University of Miami) were grown in Growth Media consisting of a-MEM (Gibco, cat: 12561-056)+10% FBS (Mediatech, cat: 35-015 CV)+1% Antimycotic-Antibiotic (Gibco, cat: 15240-062) at 37° C. and 5% CO2. One day before the experiment cells were plated at the density of approximately 4×10^4/well into 24 well plates in Growth Media and incubated at 37° C. and 5% CO2 overnight. Next day, the media in the 24 well plates was changed to fresh Growth Media (I ml/well) and the cells were dosed with small compounds. All compounds were available from commercial sources. Compound stocks were prepared in DMSO at a concentration of 1 mM. At the time of the experiment 1 mM stock solutions were diluted to the concentration of 1 uM in Growth Media. One in 1000 dilution of DMSO was used for the control wells. After 24-48 h incubation at 37° C. and 5% CO2 the media was removed and RNA was extracted from the cells using SV Total RNA Isolation System from Promega (cat # Z3105) following the manufacturers' instructions. Six hundred nanograms of purified total RNA was added to the reverse transcription reaction performed using SuperScript VILO cDNA Synthesis Kit from Invitrogen (cat #11754-250) as described in the manufacturer's protocol. The cDNA from this reverse transcription reaction was used to monitor gene expression by real time PCR using ABI Taqman Gene Expression Mix (cat #4369510) and primers/probes designed by ABI (assays Hs00374696_ml, Hs00897350_ml or Hs00897341_ml for human SCN1A). Results obtained using all three assays were very similar (data not shown). […]

For assay [2], the system named is SCN1A mRNA. The assay is described as follows: Upregulation of SCN1A mRNA in adult primary human keratinocytes (real time PCR). The conditions noted are these: compound 1 uM, 24-48 h, 18S-normalized vs vehicle (DMSO), average upregulation; for fold induction at 1 µM: Homo sapiens, Keratinocyte, read-out: fold increase in SCN1A mRNA levels, Keratinocytes, Avg. It is filed as cell-based. How it is done: as §1
In Example 2 primary human keratinocytes were treated with small compounds at a final concentration of 1 uM.
Adult primary human keratinocytes from PromoCell (Heidelberg, Germany, cat # C-12003) or LifeLine Cell Technology (Frederick, Md., cat # FC-0025) were grown in Growth Media supplied by the manufacturers at 37° C. and 5% CO2. One day before the experiment cells were plated at the density of approximately 4×10^4/well into 24 well plates in Growth Media and incubated at 37° C. and 5% CO2 overnight. Next day, the media in the 24 well plates was changed to fresh Growth Media (1 ml/well) and the cells were dosed with small compounds. All compounds were available from commercial sources.
Compound stocks were prepared in DMSO at a concentration of 1 mM. At the time of the experiment 1 mM stock solutions were diluted to the concentration of 1 uM in Growth Media. One in 1000 dilution of DMSO was used for the control wells. After 24-48 h incubation at 37° C. and 5% CO2 the media was removed and RNA was extracted from the cells using SV Total RNA Isolation System from Promega (cat # Z3105) following the manufacturers' instructions. Six hundred nanograms of purified total RNA was added to the reverse transcription reaction performed using SuperScript VILO cDNA Synthesis Kit from Invitrogen (cat #11754-250) as described in the manufacturer's protocol. The cDNA from this reverse transcription reaction was used to monitor gene expression by real time PCR using ABI Taqman Gene Expression Mix (cat #4369510) and primers/probes designed by ABI (assays Hs00374696_ml, Hs00897350_ml or Hs00897341_ml for human SCN1A). Results obtained using all three assays were very similar (data not shown). The following PCR cycle was used: 50° C. for 2 min, 95° C. for 10 min, 40 cycles of (95° C. for 15 seconds, 60° C. for 1 min) using StepOne Plus Real Time PCR system (Applied Biosystems). The assay for 18S was manufactured by ABI (cat #4319413E). […]
Background: Quantitative PCR measures a nucleic acid by following its amplification.

Molecules are shown by their SMILES. Structures can show the parent of a compound that is named as a salt.

In the case of `CCN(CC)C(=O)C1(c2ccccc2)CC1CN` [Milnacipran, 1R(S),2S(R)[-2-(aminomethyl)-N,N-diethyl-1-phenylcyclopropanecarboxamide hydrochloride], the fold induction at 1 µM in the assay with SCN1A mRNA [1] amounted to 4.37; in the assay on SCN1A mRNA [2], 2.72.

As to `Cc1cccc(Nc2ccncc2S(=O)(=O)NC(=O)NC(C)C)c1` [Torsemide], in the assay on SCN1A mRNA [1], the fold induction at 1 µM turned out to be 3.7.

In the case of `COc1ccc(CN2CCN(C(c3ccc(F)cc3)c3ccc(F)cc3)CC2)c(OC)c1OC` [Lomerizine, 1-[bis(4-fluorophenyl)methyl]-4-[2,3,4-trimethoxyphenylmethyl]Dihydrochloride], the fold induction at 1 µM in the assay on SCN1A mRNA [1] was 2.39; with SCN1A mRNA [2], 3.47.

As for `CCc1nn(CCCN2CCN(c3cccc(Cl)c3)CC2)c(=O)n1CCOc1ccccc1` [Nefazadone, 2-[3-[4-(3-chlorophenyl)-1-piperazinyl]propyl]-5-ethyl-2,4-dihydro-4-(2-phenoxyethyl)-3H-1,2,4-triazol-3-one monohydrochloride], the fold induction at 1 µM came to 2.39 in the assay with SCN1A mRNA [1] and 4.53 with SCN1A mRNA [2].

In the case of `CC(N=C(NC#N)Nc1ccncc1)C(C)(C)C` (centres unmarked) [Pinacidil, N-cyano-N′pyridin-4-yl-N″-(1,2,2-trimethylpropyl)guanidine], in the assay on SCN1A mRNA [1], the fold induction at 1 µM turned out to be 3.48.

For `COc1ccc(-c2oc3c(CC=C(C)C)c(O[C@@H]4O[C@H](CO)[C@@H](O)[C@H](O)[C@H]4O)cc(O)c3c(=O)c2O[C@@H]2O[C@@H](C)[C@H](O)[C@@H](O)[C@H]2O)cc1` [Icariin, 5-hydroxy-2-(4-methoxyphenyl)-8-(3-methylbut-2-enyl)-7-[(2S,3R,4S,5S,6R)-3,4,5-trihydroxy-6-(hydroxymethyl)oxan-2-yl]oxy-3-[(2S,3R,4R,5R,6S)-3,4,5-trihydroxy-6-methyloxan-2-yl]oxychromen-4-one], the fold induction at 1 µM with SCN1A mRNA [1] amounted to 2.38; in the assay on SCN1A mRNA [2] it was 2.29.

For the compound `Cc1nc2n(c(=O)c1CCN1CCC(c3noc4cc(F)ccc34)CC1)CCCC2` [Risperidone, 3-[2-[4-(6-flouro-1,2-benzisoxazol-3-yl)-1-piperidinyl]-ethyl]-6,7,8,9-tetrahydro-2-methyl-4H-pyrido[,2-a]pyrimidin-4-one], the fold induction at 1 µM in the assay with SCN1A mRNA [1] is 3.48; in the assay on SCN1A mRNA [2], 3.02.

For `CN1C(=O)CN=C(c2ccccc2)c2cc([N+](=O)[O-])ccc21` [Nimetazepam, 2-methyl-9-nitro-6-phenyl-2,5-diazabicyclo[5.4.0]undeca-5,8,10,12-tetraen-3-one], the fold induction at 1 µM is 2.03 in the assay with SCN1A mRNA [1] and 2.47 with SCN1A mRNA [2].

Turning to `COc1ccc2[nH]c([S+]([O-])Cc3ncc(C)c(OC)c3C)nc2c1` (centres unmarked) [Omeprazole, 6-methoxy-2-((4-methoxy-3,5-dimethylpyridin-2-yl)methylsulfinyl)-1H-benzo[d]imidazole Mg], the fold induction at 1 µM with SCN1A mRNA [1] worked out at 2.22; in the assay with SCN1A mRNA [2], 2.46.

Turning to `CC(C)c1ccc2oc3nc(N)c(C(=O)O)cc3c(=O)c2c1` [Amlexanox, 2-amino-7-isopropyl-5-oxo-5H-chromeno[2,3-b]pyridine-3-carboxylic acid], the fold induction at 1 µM in the assay on SCN1A mRNA [1] worked out at 2.01; in the assay on SCN1A mRNA [2], 5.41.

Consider `O=c1c2ccccc2[se]n1-c1ccccc1` [Ebselen, 2-Phenyl-1,2-benzoselenazol-3-one], for which the values for the fold induction at 1 µM in the assay on SCN1A mRNA [1] and with SCN1A mRNA [2] were 2.81 and 2.67, respectively.

In the case of `C[C@]12Cc3c[nH]nc3C[C@@H]1CC[C@@H]1[C@@H]2CC[C@@]2(C)[C@H]1CC[C@]2(C)O` [Stanozolol, 17β-Hydroxy-17-methyl-5α-androstano[3,2-c]-pyrazole], the fold induction at 1 µM in the assay on SCN1A mRNA [1] turned out to be 1.75; in the assay on SCN1A mRNA [2], 1.76.

For the compound `CCOc1cc(N)c(Cl)cc1C(=O)NCC1CN(Cc2ccc(F)cc2)CCO1` (centres unmarked) [Mosapride], the figures for the fold induction at 1 µM with SCN1A mRNA [1] and with SCN1A mRNA [2] were 1.9 and 1.47, respectively.

`CN[C@H]1CC[C@@H](c2ccc(Cl)c(Cl)c2)c2ccccc21` [Sertraline, (1S,4S)-4-(3,4-dichlorophenyl)-N-methyl-1,2,3,4-tetrahydronaphthalen-1-amine]: the values for the fold induction at 1 µM in the assay on SCN1A mRNA [1] and with SCN1A mRNA [2] were 1.79 and 5.18, respectively.

On to `COC(=O)C1=C(C)NC(C)=C(C(=O)OC2CCCN(Cc3ccccc3)C2)C1c1cccc([N+](=O)[O-])c1` [Benidipine, 5-Omethyl-3O-[(3R)-1-(phenylmethyl)-piperidin-3-yl]2,6-dimethyl-4-(3-nitrophenyl)-1,4-dihydropyridine-3,5-dicarboxylate], for which the fold induction at 1 µM in the assay on SCN1A mRNA [1] stood at 3.01; with SCN1A mRNA [2] it was 1.69.

Regarding `C[C@H]1CCC[C@H](O)CCCCCc2cc(O)cc(O)c2C(=O)O1` [Zeranol, (3S,7R)-7,14,16-trihydroxy-3-methyl-3,4,5,6,7,8,9,10,11,12-decahydro-1H-2-benzoxacyclotetradecin-1-one], the fold induction at 1 µM was 2.6 with SCN1A mRNA [1] and 4.51 in the assay on SCN1A mRNA [2].

As to `CN1CC(=O)N2[C@H](c3ccc4c(c3)OCO4)c3[nH]c4ccccc4c3C[C@@H]2C1=O` [Tadalafil, (6R-trans)-6-(1,3-benzodioxol-S-yl)-2,3,6,7,12,12a-hexahydro-2-methyl-pyrazino[1′,2′:1,6]pyrido[3,4-b]indole-1,4-dione], the figures for the fold induction at 1 µM with SCN1A mRNA [1] and with SCN1A mRNA [2] were 2.73 and 2.79, respectively.

Regarding `CS(=O)(=O)Nc1ccc(Cc2noc(-c3ccc4[nH]cc(CCN)c4c3)n2)cc1` [L-694,247, Methanesulfonamide,N-[4-[[5-[3-(2-aminoethyl)-1H-indol-5-yl]-1,2,4-oxadiazol-3-yl]methyl]phenyl]], the “fold increase in SCN1A mRNA levels, SCN1A fibroblasts, Avg” value in the assay on SCN1A mRNA [1] is recorded as 2.20 fold. In the assay with SCN1A mRNA [2], the “fold increase in SCN1A mRNA levels, Keratinocytes, Avg” value is listed as 1.68 fold.

Regarding `CCOC(=O)C1=C(C)NC(C)=C(C(=O)OC)C1c1cccc([N+](=O)[O-])c1` (racemic) [Nitrendipine, (RS)-ethyl methyl 2,6-dimethyl-4-(3-nitrophenyl)-1,4-dihydropyridine-3,5-dicarboxylate], the fold induction at 1 µM with SCN1A mRNA [1] stood at 2.13.
